Measured values from a melting point compilation (Tetko et al.; mined from patent text by program, amines drawn as free bases though some values may be those of a salt).
Residues, ends and D or L forms follow the SMILES beside them. *: point of attachment. Propionyl = CCC(=O)*; NHPh = c1ccc(N*)cc1

SMILES	melting point [°C]
COc1ccc2c(c1)c1c(n2C)C(=O)NCCO1	184 to 186
CN(O)C(=O)c1ccc(OCCOc2ccccc2)cc1	134 to 136
COC(=O)C#CC(=O)c1ccc(OC)cc1	68
COc1cc(C2=NCCO2)cc(OC)c1C(C)=O	135 to 137
CNC(=S)N1CCc2[nH]cnc2C1	228
CCCCCCCCCCCCCCCCCCOc1ccc(NC(=O)OC(C)(C)C)cc1	66 to 67
CCCCNC(=O)C(C)n1cc(C)c(-c2ccccc2)n1 (configuration not stated)	82 to 84
Nc1cc(I)ccc1Nc1cccc(-n2cccn2)c1	134 to 135
COc1cc2c(cc1OC)CN(CCCCc1ccc(NC(=O)c3cnc4cc(C)c(C)cc4n3)cc1)CC2	100 to 105
CC(Cl)=CC(C#N)NC(=O)c1cn(C)nc1C (configuration not stated)	113 to 114
CCn1nnc(-c2cccc(-c3ccnc4c(-c5cc(C)cc(C)c5)cnn34)c2)n1	65
N#Cc1ccc(-c2ccc(OCCCCBr)cc2)cc1	62.5 to 64
CCN(CC)C(=O)c1cc2ccccc2[nH]1	108 to 110
CCC(=O)N[C@@H](C)C(=O)N1CCC[C@H]1C(=O)Nc1ccccc1 (Propionyl-Ala-Pro-NHPh)	156 to 157
Nc1nc(-c2ccncc2)nc2c1c(Br)nn2C1CCCC1	189 to 191
CN(CCCNc1ncc(CCc2ccccc2)c(=O)[nH]1)c1ccccn1	134 to 136
COc1ccc2cc(C(C)C(=O)OCC(=O)NCCCO[N+](=O)[O-])ccc2c1 (configuration not stated)	51 to 53
CCC(=O)c1[nH]c(=O)[nH]c1C	270 to 271
CCOC(Nc1ccccc1)(OCC)C1(Cl)C=CN=C(C(=O)c2ccc(Cl)cc2)C1 (configuration not stated)	123 to 124
Cc1cc(Oc2ccccc2)c(NC(=O)OCc2ccccc2)c(=O)n1CC(=O)O	108 to 110
CNc1c(C)cc([N+](=O)[O-])cc1C	99
Cc1ccc(-c2ccc3c(c2)C=C(C(=O)Nc2ccc(C(O)c4ccccn4)cc2)C(C)O3)cc1 (configuration not stated)	202 to 205

SMILES	melting point [°C]
CC(C)NC(=O)NCC(=O)O	178
O=C1c2ccccc2C(O)(c2ccccc2)N1CCc1ccccc1F (configuration not stated)	208
OC(CCCC(O)c1ccccc1)c1ccccc1 (configuration not stated)	64 to 67
Cc1cc([N+](=O)[O-])c(C)cc1O	121 to 123
Cc1cn(C2CCCCC2)c(=O)nc1NS(=O)(=O)c1ccc(N)cc1	203 to 206
CN1CCC(N(CCN2CCCC2)S(=O)(=O)c2ccc(Nc3nccc(Nc4ccc(F)cc4)n3)cc2)CC1	250
COc1cc2c(cc1OC)CC(=O)N(CCCCl)C=C2	84 to 85
N#CC(=C(Nc1ccc2c(c1)OCO2)NC1CCC1)S(=O)(=O)c1ccc(Cl)cc1	190
Cn1cc(CC2CCN(CCN3c4cccc5cccc(c45)S3(=O)=O)CC2)c2cc(F)ccc21	150 to 152
CCOC(=O)c1c(Br)cnn1-c1c(Cl)cccc1Cl	62 to 65
N#Cc1cnc(N)nc1-c1ccc(Cl)cc1C(=O)c1ccccc1F	153 to 157
CC(=O)c1cc(Cl)c(N)c(I)c1F	117 to 119
CCOC(=O)CCCOc1ccc(S(=O)(=O)n2c(=O)[nH]c3cc(Cl)ccc3c2=O)cc1	167 to 169
COC(=O)C(=O)N1C(=O)[C@H](N2C(=O)c3ccccc3C2=O)[C@H]1Cl	49 to 52
CCCc1c2cc(C(=O)OCC)oc2cc2c(=O)cc(C(=O)OCC)oc12	145 to 147
CC(=O)c1ccc(S(=O)(=O)Nc2nccs2)cc1	194 to 195
CC(=O)Nc1nc(C)n2c1CN=C(c1ccccc1F)c1cc(Cl)ccc1-2	175 to 178
CC(=O)CCCc1ccc(S(N)(=O)=O)s1	54 to 57
CCCCCS(=O)(=O)NC(=O)/C=C/c1ccc(OCCOC)cc1Cc1ncc(Br)s1	88.5 to 89.1
NC(=O)NN=Cc1ccc(Oc2ccc3c(c2)CCCC3)cc1	202 to 204
CCOC(=O)Oc1cc(OC)cc(OC)c1C(=O)C=Cc1ccc(OC)cc1	107
CCOC(=O)c1cc2c(nc1C)C(=Cc1cccs1)CCC2	117 to 118

SMILES	melting point [°C]
CCOC(=O)c1c[nH]n(Cc2ccccc2)c1=O	79 to 81
Cc1cc(C)cc(-c2nnc(C(N)=O)o2)c1	230
CCN(CC)c1ccc2cc(-c3nc(C)c(C(=O)OC)s3)c(=O)oc2c1	252 to 253
COc1ccc2nn(C=Cc3ccc(-c4ccccc4)cc3)nc2c1	165 to 175
CCOC(=O)/C(=C/c1ccc(OC)c2c1CC(C)(C)O2)c1ccncc1	98 to 100
CN1CCN(c2c(F)cc3c(=O)c(C(=O)O)cn(C4CSC4)c3c2F)CC1	204 to 206
COc1ccc(C(=O)CBr)c(F)c1	67 to 69
CCCCC(=O)c1cc2oc(C(=O)O)cc2c(C)c1C	188 to 189
O=C(CCl)OCCCCOC(=O)CCl	74 to 76.5
Cc1cc(C(C)(C)C)c(O)c2[nH]c(Cc3ccccc3)nc12	226 to 228
O=C(Nc1cccnc1)c1cc2ccncc2[nH]1	270 to 290
Cn1cnc(-c2ccccc2)c1-c1ccncc1	161 to 162
O=C(O)c1cccc2c1CCc1cc(C(F)(F)F)ccc1S2	178 to 180
COC(C)(C)O[C@H]1C(=O)N[C@H]1c1ccccc1	136 to 137
O=C1CCCN1c1cc(-c2ccnc(Nc3cccc(Cl)c3)n2)ccn1	165 to 166
NS(=O)(=O)c1ccc(-n2nc(C(F)(F)F)cc2-c2ccc(-c3cscn3)cc2)cc1F	168 to 170
O=C(O)c1cc(Br)c(O)cc1O	210 to 212
N#CC(CNC(=O)Nc1cncnc1)C(=O)O (configuration not stated)	183
Cc1ccc(C2(O)c3c(C)c(N)c(C)c(C)c3OC2(C)C)cc1 (configuration not stated)	165 to 166
C[C@@H]1CNCc2cc3cccc(OC(F)(F)F)c3n21	58 to 60
COc1cccc(C(N)=O)c1SSc1c(OC)cccc1C(N)=O	188 to 189
OC1CSC(Oc2ccc(-c3ccnc(F)c3)nc2)C(O)C1O (configuration not stated)	219

SMILES	melting point [°C]
COC1([N+](=O)[O-])C=C([N+](=O)[O-])C=CC1O (configuration not stated)	68 to 70
CC1Cn2c(=O)[nH]c3cccc(c32)CN1CCc1ccccc1 (configuration not stated)	150
CCCCCCOC(=O)c1cccc(-c2cn(C)cc(-n3cccn3)c2=O)c1	96 to 97
O=C(CC1CCCCC1=O)c1ccccc1 (configuration not stated)	44 to 45
COC(=O)c1cc(-c2cc(-c3ccccc3O)nc(NC(=O)c3cccs3)c2C#N)ccc1OC	271 to 273
NS(=O)(=O)c1ncccc1C(=O)OC1COC1	140 to 142
CCC(CO)Nc1nc(C)nc2c(C)nn(C)c12 (configuration not stated)	165 to 168
Cc1oc(-c2ccccc2)nc1CCc1noc2cc(CC(Sc3ccccc3)C(=O)O)ccc12 (configuration not stated)	145 to 147
COc1ccc(Cn2cc3nc(Cl)nc(Cl)c3n2)cc1	108 to 109
CS(=O)(=O)Cc1c(C(=O)O)ccc2c1OC(F)(F)O2	107 to 109
CCOC(=O)NC(=S)N1CC1C#N (configuration not stated)	152 to 155
Cc1cccc(NC(=O)c2nc(-c3ccccc3)c3ccccc3c2O)n1	261 to 263
N#CC1CN1C(=O)NC(=O)C1CCCCC1 (configuration not stated)	142 to 144
O=C(O)Cc1c(C(=O)c2cc(CO)ccn2)[nH]c2ccc(Cl)cc12	218 to 219
Nc1c(-c2ccc(-c3nnco3)cc2)nnn1-c1ccc(C(F)(F)F)cc1F	185 to 186
O=c1[nH]c2ccccc2n1Cc1ccccc1	194
Cc1cccc(CSc2c(O)cc(-c3ccccc3)oc2=O)c1	139 to 140
CCc1ccc(OCCCN2CCN(c3ccc(Cl)nn3)CC2)cc1	123 to 125
Cc1c(-c2ccccc2)sc2c(Cl)c(Cl)c(OCC(=O)O)cc12	232 to 233
Cc1noc(NC(=O)N2CCN(c3cc(-c4cccc(F)c4)ncn3)CC2)c1C	185 to 186
CCOC(=O)c1c[nH]c2nc(N3CCN(C)CC3)ncc2c1=O	266 to 268
COc1ccc(CCN2C(=O)OC3(CCN(Cc4ccccc4)CC3)C2(C)O)cc1OC (configuration not stated)	111 to 120

SMILES	melting point [°C]
O=C(CCC(=O)N1CCCCC1c1ccccc1)c1ccc2c(c1)CCN(C(=O)C(F)(F)F)CC2 (configuration not stated)	132 to 133
CNC(=O)C=C1CC2(CCCC2)c2ccccc21	178
CN(CCN1CCN(Cc2ccc(C(F)(F)F)cc2)CC1)C[C@@]1(C)Cn2cc([N+](=O)[O-])nc2O1	102 to 104
CN1CCN(CC2(O)CC=Cc3ncccc32)CC1 (configuration not stated)	126 to 127
CCC1CC(=O)C=C(c2ccc(OCC(=O)O)c(Cl)c2Cl)C1 (configuration not stated)	163 to 165
CC(C)(C)Nc1c(NCc2cccc(F)c2)c(=O)c1=O	295 to 297
N#Cc1cc2c(c(N3CCN(CCCCN4C(=O)c5ccccc5S4(=O)=O)CC3)c1)OCCO2	162 to 164
CCOC(=O)c1cc(S(N)(=O)=O)c(Cl)cc1Cl	119 to 122
Cc1nn(-c2ccccn2)c2c1C(=O)CC(C)(C)C2S(=O)(=O)c1ccccc1 (configuration not stated)	165 to 166
CS(=O)(=O)Nc1ccc(CCN2CCCCC2)cc1	123 to 124
CC(CCc1ccccc1)N(C)C1CCC(c2ccc(OCc3ccccc3)cc2)CC1 (racemic)	54.5 to 55.5
CC1=C(C)C2=NC(C)(C(C)C)C(=O)N2C1=O (configuration not stated)	98 to 99
Cc1cc(C)c2c(c1)cc(C(=O)OCc1ccccc1)n2CC(=O)OC(C)(C)C	115
COc1ccc2cc(C3SCCCS3)ccc2c1	190
O=C1CC(c2ccccc2)Cc2nccc(Cl)c21 (configuration not stated)	71 to 72
c1ccc2cc(N3CCC4(CCNCC4)CC3)ccc2c1	158 to 162
CCOC(=O)c1cn(C(C)c2c(F)cccc2F)nn1 (configuration not stated)	118 to 121
COc1ccc(OC)c2c(Nc3ccc(C)c(O)c3)c(C#N)cnc12	240 to 242
CCCCc1cc(=O)c(C(=O)OCC)cn1Cc1ccc(-c2ccccc2C(=O)OC(C)(C)C)cc1	80 to 81
